# Data: patent US20150197492A1, “NOVEL INDENO[1,2-c]QUINOLIN-11-ONE DERIVATIVES, PREPARATION METHOD AND APPLICATION THEREOF” (National Defense Medical Center, priority 2014, published 2015)
# What was measured:
# human PC-3 cells = test: Sulforhodamine B (SRB) assay, cytotoxicity against PC-3 cells; format: cell-based; conditions: SRB assay, PC-3 cells
# Method: Add 5% Fetal Bovine Serum (FBS) to 96-well plate and fix the cells with 10% TCA after 24 hours of incubation and add the compound (T0). Add DMSO and culture for another 48 hours and the cells are fixed in 0.4% (W/V), 10% TCA and SRB, and […]. Excess SRB is washed off by 1% acetic acid and cells stained with SRB are dissolved in 10 mmol/L Trizma base. The absorbance is measured at 515 nm. The treatment time is 0 (T0), control growth (C) and the increase of the compound (Tx) in the cells are shown below and are used to calculate the increase of the concentration of the compound in percentage. Growth inhibition (GI %) is calculated using the following formula 100−[(TX−T0)/(C−T0)]×100. The 50% growth inhibition concentration (IC50) is used to confirm the concentration of compound and thus results in 50% reduction of the treated cells which control the amount of total protein.
# This part of experimental results are SRB assays measuring cytotoxicity of the 26 synthesized compounds against human PC-3 cells and are summarized in Table 1 and 2.
# Solubility in DMSO = format: physicochemical; conditions: order SJ-2<SJ-24<SJ-3<SJ-11
# Text: The solubility of the four compounds in DMSO is poor, SJ-2<SJ-24<SJ-3<SJ-11, and therefore it is estimated and this is the reason why the three compounds which have previously proven to be effective against PC-3 cell line by SRB assays are ineffective in this experiment.
SMILES,Toxicity (%) (human PC-3 cells),GI % (10 μM) (human PC-3 cells),melting point,solubility in DMSO (Solubility in DMSO)
"O=C1c2cc(Cl)ccc2-c2c(N3CCCC3)nc3ccccc3c21 [SJ-4, 9-Chloro-6-(pyrrolidin-1-yl)-11H-indeno[1,2-c]quinolin-11-one]",47.2%,100%,149 to 150 °C,
"O=C1c2cc(Cl)ccc2-c2c(N3CCCCC3)nc3ccccc3c21 [SJ-5, 9-Chloro-6-(piperidin-1-yl)-11H-indeno[1,2-c]quinolin-11-one]",22.2%,100%,191 to 192 °C,
"O=C1c2cc(Cl)ccc2-c2c(N3CCCCCC3)nc3ccccc3c21 [SJ-7, 6-(Azepan-1-yl)-9-chloro-11H-indeno[1,2-c]quinolin-11-one]",41.7%,100%,146 to 147 °C,
"CCN1CCN(c2nc3ccccc3c3c2-c2ccc(Cl)cc2C3=O)CC1 [SJ-13, 9-Chloro-6-(4-ethylpiperazin-1-yl)-11H-indeno[1,2-c]quinolin-11-one]",29.7%,100%,182 to 184 °C,
"O=C1c2cc(Cl)ccc2-c2c(N3CCC(N4CCCCC4)CC3)nc3ccccc3c21 [SJ-15, 9-Chloro-6-(4-(piperidin-1-yl)piperidin-1-yl)-11H-indeno[1,2-c]quinolin-11-one]",0%,98.83%,174 to 175 °C,
"O=C1c2cc(Cl)ccc2-c2c(N3CCN(Cc4ccccc4)CC3)nc3ccccc3c21 [SJ-17, 6-(4-Benzylpiperazin-1-yl)-9-chloro-11H-indeno[1,2-c]quinolin-11-one]",0%,73.53%,178 to 180 °C,
"O=C1c2cc(Cl)ccc2-c2c(N3CCN(c4ccccc4F)CC3)nc3ccccc3c21 [SJ-18, 9-Chloro-6-(4-(2-fluorophenyl)piperazin-1-yl)-11H-indeno[1,2-c]quinolin-11-one]",0%,85.48%,182 to 183 °C,
"COc1ccccc1N1CCN(c2nc3ccccc3c3c2-c2ccc(Cl)cc2C3=O)CC1 [SJ-19, 9-Chloro-6-(4-(2-methoxyphenyl)piperazin-1-yl)-11H-indeno[1,2-c]quinolin-11-one]",8.5%,100%,129 to 131 °C,
"CN1CCC(N2CCN(c3nc4ccccc4c4c3-c3ccc(Cl)cc3C4=O)CC2)CC1 [SJ-21, 9-Chloro-6-(4-(1-methylpiperidin-4-yl)piperazin-1-yl)-11H-inden o[1,2-c]quinolin-11-one]",66%,100%,208 to 209 °C,
O=C1c2cc(Cl)ccc2-c2c(N3CCC4(CC3)OCCO4)nc3ccccc3c21 [SJ-22],42.6%,100%,218 to 219 °C,
"O=C1c2cc(Cl)ccc2-c2c(N3CCC(CCCC4CCNCC4)CC3)nc3ccccc3c21 [SJ-24, 9-Chloro-6-(4-(3-(piperidin-4-yl)propyl)piperidin-1-yl)-11H-indeno[1,2-c]quinolin-11-one]",63.8%,100%,149 to 151 °C,poor
